Test results taken from PubChem BioAssay (NCI).
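Here, GI50 denotes the concentration required for 50% inhibition of growth. TGI: concentration producing complete growth inhibition.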

Tests used:
Assay in all cases: growth of human tumour cells (NCI), 384-well format
[1] = tested on: SW-620 colon
[2] = tested on: 786-0 renal
[3] = tested on: DU-145 prostate
[4] = tested on: MDA-MB-231 breast
[5] = tested on: T-47D breast
[6] = tested on: NCI-H226 lung
[7] = tested on: MCF7 breast
[8] = tested on: CCRF-CEM leukemia
[9] = tested on: NCI-H322M lung
[10] = tested on: NCI/ADR-RES ovarian
[11] = tested on: NCI-H23 lung
[12] = tested on: OVCAR-5 ovarian
[13] = tested on: MOLT-4 leukemia
[14] = tested on: SR leukemia
[15] = tested on: IGROV1 ovarian
[16] = tested on: HCC-2998 colon
[17] = tested on: HOP-62 NSCLC
[18] = tested on: SK-OV-3 ovarian
[19] = tested on: MDA-MB-435 melanoma
[20] = tested on: HOP-92 NSCLC
[21] = tested on: KM12 colon
[22] = tested on: EKVX NSCLC
[23] = tested on: HS 578T breast
[24] = tested on: MDA-MB-468 breast
[25] = tested on: SK-MEL-28 melanoma
[26] = tested on: M14 melanoma
[27] = tested on: HL-60(TB) leukemia
[28] = tested on: A549 NSCLC
[29] = tested on: UACC-257 melanoma
[30] = tested on: SNB-75 CNS
[31] = tested on: OVCAR-4 ovarian
[32] = tested on: CAKI-1 renal
[33] = tested on: SN12C renal
[34] = tested on: PC-3 prostate
[35] = tested on: SNB-19 CNS
[36] = tested on: SK-MEL-2 melanoma
[37] = tested on: RXF 393 renal
[38] = tested on: UACC-62 melanoma
[39] = tested on: SF-268 CNS
[40] = tested on: OVCAR-8 ovarian
[41] = tested on: HCT-15 colon
[42] = tested on: HT29 colon
[43] = tested on: U251 glioblastoma
[44] = tested on: COLO 205 colon
[45] = tested on: SF-539 CNS
[46] = tested on: RPMI-8226 leukemia
[47] = tested on: MALME-3M melanoma
[48] = tested on: ACHN renal
[49] = tested on: SF-295 CNS
[50] = tested on: NCI-H522 lung
[51] = tested on: OVCAR-3 ovarian
[52] = tested on: SK-MEL-5 melanoma
[53] = tested on: BT-549 breast
[54] = tested on: TK-10 renal
[55] = tested on: NCI-H460 NSCLC

`Nc1ccn([C@@H]2S[C@H](CO)[C@@H](O)[C@@H]2F)c(=O)n1` gave a GI50 [1] of 250 nM, a TGI [1] of over 100000 nM and a GI50 [2] of 44.2 nM. For the same compound, the TGI [2] was 319 nM, the GI50 [3] was 24.3 nM and the TGI [3] was 71.2 nM. It also gave a GI50 [4] of 20.3 nM, a TGI [4] of 600 nM and a GI50 [5] of 310 nM. The TGI [5] was 35500 nM, the GI50 [6] was 84.9 nM and the TGI [6] was 320 nM. The GI50 [7] was 90.9 nM, the TGI [7] was over 100000 nM and the GI50 [8] was under 10 nM. The TGI [8] was 12.2 nM, the GI50 [9] was 179 nM and the TGI [9] was 50400 nM. The GI50 [10] was 16.5 nM, the TGI [10] was 48.1 nM and the GI50 [11] was 23.7 nM. It also gave a TGI [11] of 64.5 nM, a GI50 [12] of 150 nM and a GI50 [13] of under 10 nM. For the same compound, the GI50 [14] was 139 nM, the TGI [14] was 271 nM and the GI50 [15] was 310 nM. It also gave a TGI [15] of 57500 nM, a GI50 [16] of 15.2 nM and a TGI [16] of 255 nM. It also gave a GI50 [17] of 14.3 nM, a TGI [17] of 54.8 nM and a GI50 [18] of 24.2 nM. It also gave a TGI [18] of 182 nM, a GI50 [19] of 383 nM and a TGI [19] of over 100000 nM. For the same compound, the GI50 [20] was 25.2 nM, the TGI [20] was 9020 nM and the GI50 [21] was 86.2 nM. For the same compound, the TGI [21] was over 100000 nM, the GI50 [22] was 434 nM and the TGI [22] was over 100000 nM. It also gave a GI50 [23] of 53.2 nM, a TGI [23] of over 100000 nM and a GI50 [24] of 61.7 nM. The TGI [24] was 624 nM, the GI50 [25] was 74.3 nM and the TGI [25] was 672 nM. The GI50 [26] was 38.7 nM, the TGI [26] was 163 nM and the GI50 [27] was 20.3 nM. It also gave a TGI [27] of 39 nM, a GI50 [28] of 57.1 nM and a TGI [28] of over 100000 nM. For the same compound, the GI50 [29] was 318 nM, the TGI [29] was 7780 nM and the GI50 [30] was 54 nM. For the same compound, the TGI [30] was 2680 nM, the GI50 [31] was over 100000 nM and the TGI [31] was over 100000 nM. It also gave a GI50 [32] of 37.3 nM, a TGI [32] of 797 nM and a GI50 [33] of 23.8 nM. For the same compound, the TGI [33] was 69.5 nM, the GI50 [34] was 55.9 nM and the TGI [34] was over 100000 nM. It also gave a GI50 [35] of 22.5 nM, a TGI [35] of 387 nM and a GI50 [36] of 56.5 nM. The TGI [36] was 201 nM, the GI50 [37] was 77.4 nM and the TGI [37] was 767 nM. The GI50 [38] was 184 nM, the TGI [38] was 443 nM and the GI50 [39] was 140 nM. For the same compound, the TGI [39] was 349 nM, the GI50 [40] was 13.4 nM and the TGI [40] was 35.2 nM. It also gave a GI50 [41] of 55.7 nM, a TGI [41] of over 100000 nM and a GI50 [42] of 116 nM. It also gave a TGI [42] of 15600 nM, a GI50 [43] of 172 nM and a TGI [43] of 572 nM. It also gave a GI50 [44] of 49.3 nM, a TGI [44] of 277 nM and a GI50 [45] of 138 nM. It also gave a TGI [45] of 352 nM, a GI50 [46] of 194 nM and a TGI [46] of 449 nM. The GI50 [47] was under 10 nM, the TGI [47] was 316 nM and the GI50 [48] was 23.8 nM. It also gave a TGI [48] of 56.6 nM, a GI50 [49] of 143 nM and a TGI [49] of 460 nM. The GI50 [50] was 11.6 nM, the TGI [50] was 95 nM and the GI50 [51] was 47.3 nM. For the same compound, the TGI [51] was 6890 nM, the GI50 [52] was 53.6 nM and the TGI [52] was 252 nM. The GI50 [53] was 22.6 nM, the TGI [53] was 192 nM and the GI50 [54] was over 100000 nM. For the same compound, the TGI [54] was over 100000 nM, the GI50 [55] was 24 nM and the TGI [55] was 91 nM.
